PubChem BioAssay (NCI)
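Exposure lasted 48 hours, with cells grown in 96-well plates and compounds tested at five concentrations. Here, GI50 denotes the concentration required for 50% inhibition of growth. TGI: total growth inhibition.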

What was measured:
Test in all cases: DTP human tumour cell line panel, 48 h
OVCAR-4 ovarian = test system: OVCAR-4 ovarian
MOLT-4 leukemia = test system: MOLT-4 leukemia
SF-268 CNS = test system: SF-268 CNS
SW-620 colon = test system: SW-620 colon
HL-60(TB) leukemia = test system: HL-60(TB) leukemia
HCT-15 colon = test system: HCT-15 colon
U251 CNS = test system: U251 CNS
HOP-92 NSCLC = test system: HOP-92 NSCLC
BT-549 breast = test system: BT-549 breast
MDA-MB-435 = test system: MDA-MB-435

Row | Structure (SMILES) | TGI (OVCAR-4 ovarian) [µM] | TGI (MOLT-4 leukemia) [µM] | TGI (SF-268 CNS) [µM] | TGI (SW-620 colon) [µM] | TGI (HL-60(TB) leukemia) [µM] | TGI (HCT-15 colon) [µM] | TGI (U251 CNS) [µM] | TGI (HOP-92 NSCLC) [µM] | GI50 (OVCAR-4 ovarian) [µM] | GI50 (MOLT-4 leukemia) [µM] | GI50 (SF-268 CNS) [µM] | GI50 (BT-549 breast) [µM] | TGI (BT-549 breast) [µM] | GI50 (SW-620 colon) [µM] | GI50 (MDA-MB-435) [µM] | TGI (MDA-MB-435) [µM] | GI50 (HL-60(TB) leukemia) [µM] | GI50 (HCT-15 colon) [µM] | GI50 (U251 CNS) [µM] | GI50 (HOP-92 NSCLC) [µM]
1 | CCc1ccccc1NC(=O)c1cccc([N+](=O)[O-])c1O | > 100 | > 100 | > 100 | > 100 | > 100 | > 100 | > 100 | 45.4 | – | – | – | – | – | – | – | – | – | – | – | –
2 | O=c1/c(=C/c2ccccc2[N+](=O)[O-])sc2nnc(-c3cccnc3)n12 | > 100 | > 100 | > 100 | 24.5 | > 100 | > 100 | – | > 100 | – | – | – | – | – | – | – | – | – | – | – | –
3 | Cn1nccc1Nc1nccc(-c2ccn([C@H](CO)c3ccc(Cl)c(F)c3)c(=O)c2)n1 | > 100 | > 92.2 | > 100 | 30.4 | 30.4 | > 100 | > 100 | 40 | 33.5 | 24.4 | 38.1 | 19.7 | 61 | 5.02 | 3.16 | > 100 | 1.89 | 21.3 | 20.8 | 1.36
4 | CCN(CC)Cc1cc(Nc2nc(NC3CCC(N(C)C)CC3)c3ccccc3n2)ccc1OC (configuration not stated) | 18.3 | 6.9 | 20.4 | 13.3 | 14.9 | 35.3 | 14.5 | 6.71 | 4.24 | 2.34 | 5.35 | – | – | 3.18 | 3.05 | 11.9 | 3.87 | 15.2 | 3.61 | 1.63
5 | Nc1ncc(Cc2ccc3c(c2)OCO3)c(N)n1 | > 100 | > 100 | > 100 | > 100 | > 100 | > 100 | > 100 | > 100 | – | – | – | – | – | – | – | > 100 | – | – | – | –
6 | N#CNC(N)=NCc1ccccc1 | > 100 | > 100 | > 100 | – | > 100 | > 100 | > 100 | > 100 | – | – | – | – | – | – | – | – | – | – | – | –
7 | COc1cc([C@@H]2c3cc4c(cc3[C@@H](NC(=O)c3ccc(C#N)cc3)C3COC(=O)[C@@H]32)OCO4)cc(OC)c1O (some centres not stated) | > 100 | 12.4 | 16.9 | 10.7 | 11.1 | 15.1 | 1.26 | 22.9 | – | – | – | – | – | – | – | – | – | – | – | –
8 | O=C1NC(=O)c2c1n(Cc1ccccc1)c(=O)n2Cc1ccccc1 | > 100 | > 100 | > 100 | > 100 | > 100 | > 100 | > 100 | > 100 | – | – | – | – | – | – | – | – | – | – | – | –
9 | CCCCCCCCCCCC[N+]1(CCCCCCCCCCCC)CCCC(C)C1 (configuration not stated) | – | – | 1.25 | 1.33 | 0.666 | – | 1.29 | – | – | – | 0.293 | 0.817 | 3.25 | 0.303 | 0.277 | 1.09 | 0.174 | – | 0.327 | –
10 | CCCCCCCC(=O)OCC(COC(=O)C(C)(C)C)OC(=O)Cc1ccccc1 (configuration not stated) | > 100 | > 100 | > 100 | > 100 | > 100 | > 100 | > 100 | > 100 | – | – | – | – | – | – | – | – | – | – | – | –
11 | O=C(Nc1ccc(N=C=S)cc1Cl)c1cc(Br)cc(Br)c1O | > 100 | 69.4 | > 100 | 72.3 | > 100 | 31.3 | 53.1 | 56 | – | – | – | – | – | – | – | 71.4 | – | – | – | –
12 | CCOC(=O)c1nc(C)oc1C(F)(F)F | > 100 | > 100 | > 100 | > 100 | > 100 | > 100 | > 100 | > 100 | – | – | – | – | – | – | – | – | – | – | – | –
13 | O=c1cc(O)cc2n1CCC2 | – | > 100 | > 100 | > 100 | – | > 100 | > 100 | – | – | – | – | – | – | – | – | – | – | – | – | –
14 | COc1nc2c(c(O)c(C)c(=O)n2OC2OCC(OC(C)=O)C(OC(C)=O)C2OC(C)=O)c(=O)n1C (configuration not stated) | > 100 | > 100 | > 100 | > 100 | – | > 100 | > 100 | – | – | – | – | – | – | – | – | – | – | – | – | –
15 | COC(=O)C1C(=O)O[C@@H](c2ccc3c(c2)OCO3)C1C(=O)OC (mixture of isomers) | > 100 | > 100 | > 100 | > 100 | > 100 | > 100 | > 100 | > 100 | – | – | – | – | – | – | – | – | – | – | – | –
16 | COc1cc(C)c(CC/C(C)=C/Cc2cc(O)ccc2O)c(C)c1C | > 25 | > 25 | > 25 | > 25 | > 25 | > 25 | > 25 | > 25 | – | – | – | – | – | – | – | – | – | – | – | –
17 | Cc1nc(N)nc(CCC(=O)Nc2cccc(C(F)(F)F)c2)c1-c1ccc(Cl)cc1 | > 100 | > 100 | > 100 | > 100 | > 100 | > 100 | > 100 | > 100 | – | – | – | – | – | – | – | – | – | – | – | –
18 | Cc1ccc(S(=O)(=O)OCC/C(=C\[Si](C)(C)C)c2ccccc2)cc1 | > 100 | > 100 | > 100 | > 100 | > 100 | > 100 | > 100 | > 100 | – | – | – | – | – | – | – | – | – | – | – | –
19 | N#CC(C(=O)C(=O)Nc1c(Cl)cccc1Cl)c1ccccc1 (configuration not stated) | > 100 | > 100 | > 100 | > 100 | > 100 | > 100 | > 100 | > 100 | > 100 | > 100 | > 100 | – | – | > 100 | – | – | > 100 | > 100 | > 100 | > 100
20 | OCc1cc2c(cn1)[nH]c1ccc(NCc3ccccc3)cc12 | > 100 | 55.8 | 70.9 | 78.7 | 31.4 | > 100 | > 100 | 57.3 | – | – | – | – | – | – | – | – | – | – | – | –
21 | O=[N+]([O-])c1ccc(Cl)c2c([N+](=O)[O-])cccc12 | > 10 | > 10 | > 10 | > 10 | 7.16 | > 10 | – | > 10 | – | – | – | – | – | – | – | 9.61 | – | – | – | –
